{"source": "patent US20250176599A1", "about": "“FLAVOR COMPOSITION AND FOOD AND BEVERAGE” (TAKASAGO INTERNATIONAL CORPORATION, priority 2021, published 2025)", "key": {"[1]": {"experiment": "Sensory evaluation of aqueous solution IV containing 1,5-octadien-3-one 100 ppt: off-flavor intensity and masking component intensity", "conditions": "aqueous solution IV, 1,5-octadien-3-one 100 ppt, average score 0-4", "summary_of_the_method": "(§1)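 Scores run 0–4 for two attributes: off-flavor intensity, judged against the unmasked spiked solution (4) and degradant-free water (0), and nootkatone's own perceptibility, judged absolutely. A panel of eight experienced tasters evaluated aqueous solutions of the degradation component containing added nootkatone.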"}, "[2]": {"experiment": "Sensory evaluation of aqueous solution III containing 1-octen-3-one 1 ppb: off-flavor intensity and masking component intensity", "conditions": "1-octen-3-one 1 ppb, average score 0-4", "summary_of_the_method": "as §1"}, "[3]": {"experiment": "Sensory evaluation of aqueous solution I containing (E)-2-nonenal 1 ppb: off-flavor intensity and masking component intensity", "conditions": "(E)-2-nonenal 1 ppb, average score 0-4", "summary_of_the_method": "as §1"}, "[4]": {"experiment": "Overall conclusion of the sensory evaluation across soymilks I and II", "method": "(§2) To commercially available soymilk (“Delicious Unadjusted Soymilk” manufactured by Kikkoman Corporation), each degradation component was added to prepare degradation component-added soymilks at the concentrations listed in Table 23. To these degradation component-added soymilks, 1,4-dioxacycloheptadecan-5,17-dione was added at the concentrations listed in Table 23 to confirm the intensity of the off-flavor (masking effect) and the intensity of the masking components (impact on the flavor of the soymilk itself) for each sample.\nEight experienced panelists were selected to conduct a sensory evaluation similar to that of Example 1.\nThe same method as in Example 20 was used to confirm the intensity of the off-flavor (masking effect) derived from unsaturated fatty acids by α-methyl ionone and the intensity of the masking components (impact on the flavor of the soymilk itself).\nThe same method as in Example 20 was used to confirm the intensity of the off-flavor (masking effect) derived from unsaturated fatty acids by menthyl 3-hydroxybutyrate and the intensity of the masking components (impact on the flavor of the soymilk itself)."}, "[5]": {"experiment": "Sensory evaluation of aqueous solution VI containing 1,5-octadien-3-ol 10 ppb: off-flavor intensity and masking component intensity", "conditions": "aqueous solution VI, 1,5-octadien-3-ol 10 ppb, average score 0-4", "summary_of_the_method": "as §1"}, "[6]": {"experiment": "Sensory evaluation of degradation component-added soymilk II (1-octen-3-ol 500 ppb)", "conditions": "average panel score", "method": "as §2\n(§3) Eight experienced panelists were selected to conduct a sensory evaluation similar to that of Example 1. […]"}, "[7]": {"experiment": "Sensory evaluation of degradation component-added soymilk I ((E)-2-nonenal 5 ppb)", "conditions": "average panel score", "method": "as §2, §3"}, "[8]": {"experiment": "Sensory evaluation of aqueous solution V containing 1-octen-3-ol 10 ppb: off-flavor intensity and masking component intensity", "conditions": "1-octen-3-ol 10 ppb, average score 0-4", "summary_of_the_method": "as §1"}, "[9]": {"experiment": "Overall conclusion of the sensory evaluation across aqueous solutions I to VI", "summary_of_the_method": "as §1"}, "[10]": {"experiment": "Sensory evaluation of aqueous solution II containing (E)-2-octenal 10 ppb: off-flavor intensity and masking component intensity", "conditions": "(E)-2-octenal 10 ppb, average score 0-4", "summary_of_the_method": "as §1"}}}
{"smiles": "O=C1CCCCCCCCCCCC(=O)OCCO1", "note": "[1,4-Dioxacycloheptadecan-5,17-Dione, 1,4-dioxacycloheptadecan-5,17-dione]", "values": [{"measurement": "Off-Flavor Intensity", "setting": "[1]; 0.001 ppt added", "result": 3.8, "unit": "points"}, {"measurement": "Off-Flavor Intensity", "setting": "[1]; 0.01 ppt added", "result": 3.5, "unit": "points"}, {"measurement": "Off-Flavor Intensity", "setting": "[1]; 0.1 ppt added", "result": 3.4, "unit": "points"}, {"measurement": "Off-Flavor Intensity", "setting": "[1]; 1 ppb added", "result": 2.1, "unit": "points"}, {"measurement": "Off-Flavor Intensity", "setting": "[1]; 1 ppt added", "result": 3.0, "unit": "points"}, {"measurement": "Off-Flavor Intensity", "setting": "[1]; 10 ppb added", "result": 1.6, "unit": "points"}, {"measurement": "Off-Flavor Intensity", "setting": "[1]; 10 ppt added", "result": 2.9, "unit": "points"}, {"measurement": "Off-Flavor Intensity", "setting": "[1]; 100 ppb added", "result": 1.0, "unit": "points"}, {"measurement": "Off-Flavor Intensity", "setting": "[1]; 100 ppt added", "result": 2.8, "unit": "points"}, {"measurement": "Off-Flavor Intensity", "setting": "[2]; 0.001 ppt added", "result": 3.6, "unit": "points"}, {"measurement": "Off-Flavor Intensity", "setting": "[2]; 0.01 ppt added", "result": 3.4, "unit": "points"}, {"measurement": "Off-Flavor Intensity", "setting": "[2]; 0.1 ppt added", "result": 3.0, "unit": "points"}, {"measurement": "Off-Flavor Intensity", "setting": "[2]; 1 ppb added", "result": 1.4, "unit": "points"}, {"measurement": "Off-Flavor Intensity", "setting": "[2]; 1 ppt added", "result": 2.6, "unit": "points"}, {"measurement": "Off-Flavor Intensity", "setting": "[2]; 10 ppb added", "result": 1.0, "unit": "points"}, {"measurement": "Off-Flavor Intensity", "setting": "[2]; 10 ppt added", "result": 2.4, "unit": "points"}, {"measurement": "Off-Flavor Intensity", "setting": "[2]; 100 ppb added", "result": 0.3, "unit": "points"}, {"measurement": "Off-Flavor Intensity", "setting": "[2]; 100 ppt added", "result": 1.8, "unit": "points"}, {"measurement": "Off-Flavor Intensity", "setting": "[3]; 0.001 ppt added", "result": 3.5, "unit": "points"}, {"measurement": "Off-Flavor Intensity", "setting": "[3]; 0.01 ppt added", "result": 3.3, "unit": "points"}, {"measurement": "Off-Flavor Intensity", "setting": "[3]; 0.1 ppt added", "result": 2.9, "unit": "points"}, {"measurement": "Off-Flavor Intensity", "setting": "[3]; 1 ppb added", "result": 1.6, "unit": "points"}, {"measurement": "Off-Flavor Intensity", "setting": "[3]; 1 ppt added", "result": 2.8, "unit": "points"}, {"measurement": "Off-Flavor Intensity", "setting": "[3]; 10 ppb added", "result": 1.0, "unit": "points"}, {"measurement": "Off-Flavor Intensity", "setting": "[3]; 10 ppt added", "result": 2.3, "unit": "points"}, {"measurement": "Off-Flavor Intensity", "setting": "[3]; 100 ppb added", "result": 0.3, "unit": "points"}, {"measurement": "Off-Flavor Intensity", "setting": "[3]; 100 ppt added", "result": 2.0, "unit": "points"}, {"measurement": "concentration that masks the off-flavor and does not affect the flavor of the soymilk itself, lower limit", "setting": "[4]", "result": "≥ 10", "unit": "ppt"}, {"measurement": "concentration that masks the off-flavor and does not affect the flavor of the soymilk itself, upper limit", "setting": "[4]", "result": "≤ 1", "unit": "ppm"}, {"measurement": "Off-Flavor Intensity", "setting": "[5]; 0.001 ppt added", "result": 3.3, "unit": "points"}, {"measurement": "Off-Flavor Intensity", "setting": "[5]; 0.01 ppt added", "result": 3.0, "unit": "points"}, {"measurement": "Off-Flavor Intensity", "setting": "[5]; 0.1 ppt added", "result": 2.9, "unit": "points"}, {"measurement": "Off-Flavor Intensity", "setting": "[5]; 1 ppb added", "result": 1.8, "unit": "points"}, {"measurement": "Off-Flavor Intensity", "setting": "[5]; 1 ppt added", "result": 2.5, "unit": "points"}, {"measurement": "Off-Flavor Intensity", "setting": "[5]; 10 ppb added", "result": 1.4, "unit": "points"}, {"measurement": "Off-Flavor Intensity", "setting": "[5]; 10 ppt added", "result": 2.5, "unit": "points"}, {"measurement": "Off-Flavor Intensity", "setting": "[5]; 100 ppb added", "result": 0.9, "unit": "points"}, {"measurement": "Off-Flavor Intensity", "setting": "[5]; 100 ppt added", "result": 2.1, "unit": "points"}, {"measurement": "Masking Component Intensity", "setting": "[6]; 1 ppb added", "result": 0.9}, {"measurement": "Off-Flavor Intensity", "setting": "[6]; 1 ppb added", "result": 1.8}, {"measurement": "Masking Component Intensity", "setting": "[6]; 1 ppm added", "result": 2.8}, {"measurement": "Off-Flavor Intensity", "setting": "[6]; 1 ppm added", "result": 0.5}, {"measurement": "Masking Component Intensity", "setting": "[6]; 10 ppb added", "result": 1.3}, {"measurement": "Off-Flavor Intensity", "setting": "[6]; 10 ppb added", "result": 1.3}, {"measurement": "Masking Component Intensity", "setting": "[6]; 10 ppt added", "result": 0.4}, {"measurement": "Off-Flavor Intensity", "setting": "[6]; 10 ppt added", "result": 2.5}, {"measurement": "Masking Component Intensity", "setting": "[6]; 100 ppb added", "result": 2.1}, {"measurement": "Off-Flavor Intensity", "setting": "[6]; 100 ppb added", "result": 1.0}, {"measurement": "Masking Component Intensity", "setting": "[6]; 100 ppt added", "result": 0.5}, {"measurement": "Off-Flavor Intensity", "setting": "[6]; 100 ppt added", "result": 2.0}, {"measurement": "Masking Component Intensity", "setting": "[7]; 1 ppb added", "result": 0.3}, {"measurement": "Off-Flavor Intensity", "setting": "[7]; 1 ppb added", "result": 2.3}, {"measurement": "Masking Component Intensity", "setting": "[7]; 1 ppm added", "result": 2.6}, {"measurement": "Off-Flavor Intensity", "setting": "[7]; 1 ppm added", "result": 0.6}, {"measurement": "Masking Component Intensity", "setting": "[7]; 10 ppb added", "result": 1.0}, {"measurement": "Off-Flavor Intensity", "setting": "[7]; 10 ppb added", "result": 1.8}, {"measurement": "Masking Component Intensity", "setting": "[7]; 10 ppt added", "result": 0.0}, {"measurement": "Off-Flavor Intensity", "setting": "[7]; 10 ppt added", "result": 3.0}, {"measurement": "Masking Component Intensity", "setting": "[7]; 100 ppb added", "result": 1.9}, {"measurement": "Off-Flavor Intensity", "setting": "[7]; 100 ppb added", "result": 1.0}, {"measurement": "Masking Component Intensity", "setting": "[7]; 100 ppt added", "result": 0.0}, {"measurement": "Off-Flavor Intensity", "setting": "[7]; 100 ppt added", "result": 2.9}, {"measurement": "Off-Flavor Intensity", "setting": "[8]; 0.001 ppt added", "result": 3.4, "unit": "points"}, {"measurement": "Off-Flavor Intensity", "setting": "[8]; 0.01 ppt added", "result": 3.1, "unit": "points"}, {"measurement": "Off-Flavor Intensity", "setting": "[8]; 0.1 ppt added", "result": 2.9, "unit": "points"}, {"measurement": "Off-Flavor Intensity", "setting": "[8]; 1 ppb added", "result": 1.9, "unit": "points"}, {"measurement": "Off-Flavor Intensity", "setting": "[8]; 1 ppt added", "result": 2.8, "unit": "points"}, {"measurement": "Off-Flavor Intensity", "setting": "[8]; 10 ppb added", "result": 1.4, "unit": "points"}, {"measurement": "Off-Flavor Intensity", "setting": "[8]; 10 ppt added", "result": 2.5, "unit": "points"}, {"measurement": "Off-Flavor Intensity", "setting": "[8]; 100 ppb added", "result": 0.5, "unit": "points"}, {"measurement": "Off-Flavor Intensity", "setting": "[8]; 100 ppt added", "result": 2.1, "unit": "points"}, {"measurement": "concentration that masks the off-flavor and does not affect the flavor of the food and/or beverage itself, lower limit", "setting": "[9]", "result": "≥ 0.01", "unit": "ppt"}, {"measurement": "concentration that masks the off-flavor and does not affect the flavor of the food and/or beverage itself, upper limit", "setting": "[9]", "result": "≤ 10", "unit": "ppb"}, {"measurement": "Off-Flavor Intensity", "setting": "[10]; 0.001 ppt added", "result": 3.4, "unit": "points"}, {"measurement": "Off-Flavor Intensity", "setting": "[10]; 0.01 ppt added", "result": 3.4, "unit": "points"}, {"measurement": "Off-Flavor Intensity", "setting": "[10]; 0.1 ppt added", "result": 3.1, "unit": "points"}, {"measurement": "Off-Flavor Intensity", "setting": "[10]; 1 ppb added", "result": 1.8, "unit": "points"}, {"measurement": "Off-Flavor Intensity", "setting": "[10]; 1 ppt added", "result": 2.8, "unit": "points"}, {"measurement": "Off-Flavor Intensity", "setting": "[10]; 10 ppb added", "result": 1.5, "unit": "points"}, {"measurement": "Off-Flavor Intensity", "setting": "[10]; 10 ppt added", "result": 2.4, "unit": "points"}, {"measurement": "Off-Flavor Intensity", "setting": "[10]; 100 ppb added", "result": 0.6, "unit": "points"}, {"measurement": "Off-Flavor Intensity", "setting": "[10]; 100 ppt added", "result": 2.0, "unit": "points"}]}
